{
  "source": "patent US6849596B1",
  "about": "“Regulatory/unfolding peptides of ezrin” (priority 1999, dated 2005)",
  "key": {"[1]": {"tested_on": "human Peripheral Blood Mononuclear Cells", "test": "In vitro activation of human PBMC, tritiated thymidine incorporation", "format": "cell-based", "conditions": "three days, Control 370", "method": "Peripheral Blood Mononuclear Cells (PBMC) were separated from the peripheral blood of a […] donor using the standard method of fractionation in a ficoll gradient. The PBMC were suspended in culture medium containing RPMI1640 medium plus 10% fetal calf serum, 1 mM L-glutamin and antibiotics (BM). The cell suspension was placed in wells of a 96 hole microwell plate for cell cultivation, (100 microliters of suspension containing 100,000 cells per well). […] The negative control well contained BM but no peptide. The plate was incubated at 37° C. for three days then radioactive ^3H thymidine was added to a final concentration of 1 microcurie per ml. The incorporation of ^3H thymidine into the DNA of the cells was measured using a betacounter using standard procedures. The experiment was repeated twice and the results expressed as an average of the two experiments in radioactive counts per minute."}, "activated macrophages": {"tested_on": "activated macrophages", "test": "Induction of activated macrophages in mice (peritoneal exsudate)", "format": "in vivo", "conditions": "for activity in increasing activated macrophages relative to HEP1: 1.0 microgram peptide/mouse; for Activated macrophages as a percent of total number of cells: 1.0 microgram peptide/mouse injected abdominally, after 24 hours, saline 1.9", "method": "Groups of three mice (CDAxC57B1)F1 weighing 22-24 g were injected abdominally with each peptide solution of 1.0 microgram of peptide dissolved in 0.5 ml of physiological saline. After 24 hours the animals were killed using neck vertebrae dislocation and 5 ml of Hanks solution was injected into the abdomen. The abdomen was massaged for 30 seconds and then the peritoneal liquid was collected. The collected liquid was filtered using a nylon filter into siliconised tubes containing 1.5 mg/ml EDTA. The number of nucleus containing cells in […] of filtrate were then assessed under microscopic examination using a Nihon hemocytometer. The cells were pelleted by centrifugation for 5 minutes at 800 g, the pellet was resuspended in fetal calf serum, the cell suspension was dropped on to a glass microscope slide and dried then fixed in methanol and stained with Romanovski's colouring agent. Morphological analysis of the cells of the peritoneal exsudate were performed using an Opton optical microscope at 1600 magnifications. The number of lymphocytes, resting macrophages, activated macrophages, granulocytes and other cell types were assessed."}, "[2]": {"test": "Animal toxicology and pre-clinical testing of HEP1", "conditions": "rat and rabbit"}},
  "note": "Where no end group is shown, it is not given here.",
  "data": [
    {"sequence": "TEKKRRETVER (Hepreceptor peptide) [Rupe111]", "values": [
      {"measurement": "incorporation of 3H thymidine", "setting": "[1]; Peptide 0.0001 micro g/ml", "value": "483 radioactive counts per minute"},
      {"measurement": "incorporation of 3H thymidine", "setting": "[1]; Peptide 0.0003 micro g/ml", "value": "483 radioactive counts per minute"},
      {"measurement": "incorporation of 3H thymidine", "setting": "[1]; Peptide 0.001 micro g/ml", "value": "710 radioactive counts per minute"},
      {"measurement": "incorporation of 3H thymidine", "setting": "[1]; Peptide 0.003 micro g/ml", "value": "665 radioactive counts per minute"},
      {"measurement": "incorporation of 3H thymidine", "setting": "[1]; Peptide 0.01 micro g/ml", "value": "537 radioactive counts per minute"},
      {"measurement": "incorporation of 3H thymidine", "setting": "[1]; Peptide 0.03 micro g/ml", "value": "642 radioactive counts per minute"},
      {"measurement": "incorporation of 3H thymidine", "setting": "[1]; Peptide 0.1 micro g/ml", "value": "633 radioactive counts per minute"},
      {"measurement": "incorporation of 3H thymidine", "setting": "[1]; Peptide 0.3 micro g/ml", "value": "668 radioactive counts per minute"},
      {"measurement": "incorporation of 3H thymidine", "setting": "[1]; Peptide 1 micro g/ml", "value": "529 radioactive counts per minute"},
      {"measurement": "incorporation of 3H thymidine", "setting": "[1]; Peptide 3 micro g/ml", "value": "486 radioactive counts per minute"},
      {"measurement": "incorporation of 3H thymidine", "setting": "[1]; Peptide 10 micro g/ml", "value": "470 radioactive counts per minute"},
      {"measurement": "activity in increasing activated macrophages relative to HEP1", "setting": "activated macrophages", "value": "significantly more active than HEP1"},
      {"measurement": "Activated macrophages as a percent of total number of cells", "setting": "activated macrophages", "value": 4.3, "unit": "%"}
    ]},
    {"sequence": "KRRETVER (Hepreceptor peptide) [Rupe411]", "values": [
      {"measurement": "incorporation of 3H thymidine", "setting": "[1]; Peptide 0.0001 micro g/ml", "value": "385 radioactive counts per minute"},
      {"measurement": "incorporation of 3H thymidine", "setting": "[1]; Peptide 0.0003 micro g/ml", "value": "510 radioactive counts per minute"},
      {"measurement": "incorporation of 3H thymidine", "setting": "[1]; Peptide 0.001 micro g/ml", "value": "702 radioactive counts per minute"},
      {"measurement": "incorporation of 3H thymidine", "setting": "[1]; Peptide 0.003 micro g/ml", "value": "598 radioactive counts per minute"},
      {"measurement": "incorporation of 3H thymidine", "setting": "[1]; Peptide 0.01 micro g/ml", "value": "532 radioactive counts per minute"},
      {"measurement": "incorporation of 3H thymidine", "setting": "[1]; Peptide 0.03 micro g/ml", "value": "500 radioactive counts per minute"},
      {"measurement": "incorporation of 3H thymidine", "setting": "[1]; Peptide 0.1 micro g/ml", "value": "499 radioactive counts per minute"},
      {"measurement": "incorporation of 3H thymidine", "setting": "[1]; Peptide 0.3 micro g/ml", "value": "486 radioactive counts per minute"},
      {"measurement": "incorporation of 3H thymidine", "setting": "[1]; Peptide 1 micro g/ml", "value": "468 radioactive counts per minute"},
      {"measurement": "incorporation of 3H thymidine", "setting": "[1]; Peptide 3 micro g/ml", "value": "420 radioactive counts per minute"},
      {"measurement": "incorporation of 3H thymidine", "setting": "[1]; Peptide 10 micro g/ml", "value": "390 radioactive counts per minute"},
      {"measurement": "activity in increasing activated macrophages relative to HEP1", "setting": "activated macrophages", "value": "significantly more active than HEP1"},
      {"measurement": "Activated macrophages as a percent of total number of cells", "setting": "activated macrophages", "value": 5.5, "unit": "%"}
    ]},
    {"sequence": "TEKKRRETVEREKE [HEP1, TEKKRRETVEREKE]", "values": [
      {"measurement": "Chronic toxicity", "setting": "[2]", "value": "negative"},
      {"measurement": "Effect of 1000× therapeutic dose", "setting": "[2]", "value": "negative"},
      {"measurement": "Embryotoxicity", "setting": "[2]", "value": "negative"},
      {"measurement": "Influence on CNS and HVS", "setting": "[2]", "value": "negative"},
      {"measurement": "Local Irritation", "setting": "[2]", "value": "negative"},
      {"measurement": "Mutagenic effects", "setting": "[2]", "value": "negative"},
      {"measurement": "Sub-acute toxicity", "setting": "[2]", "value": "negative"},
      {"measurement": "Preliminary evaluation of toxicity", "setting": "[2]; pharmaceutical grade HEP1", "value": "negative"}
    ]}
  ]
}
